T/C data for 18 compounds are collected here from PubChem BioAssay AID330 (DTP/NCI, 2004).

The test relates to P388 leukemia ip, CD2F1 mice, survival T/C. Nature of the test: NCI In Vivo Anticancer Drug Screen. Data for tumor model P388 Leukemia (intraperitoneal) in CD2F1 (CDF1) mice. Particulars: endpoint: median survival time, higher = longer survival. In outline: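 Mice carrying the transplanted tumor received test compound or vehicle. Survival was recorded in each group, and the value is the treated-group measurement divided by that of the vehicle-treated control group.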

[1] abbreviates: dose: 50.0 mg/kg/injection, schedule: Q01DX009 (ip), vehicle: saline with Tween-80.
Where [2] appears, read: dose: 50.0 mg/kg/injection, schedule: Q01DX005 (ip), vehicle: saline with Tween-80.
The mark [3] stands for this setting: dose: 100.0 mg/kg/injection, schedule: Q01DX005 (ip), vehicle: saline with Tween-80.
Where [4] appears, read: dose: 200.0 mg/kg/injection, schedule: Q01DX005 (ip), vehicle: saline with Tween-80.
The mark [5] stands for this setting: dose: 60.0 mg/kg/injection, schedule: Q01DX005 (ip), vehicle: saline.
Setting [6] is: dose: 120.0 mg/kg/injection, schedule: Q01DX005 (ip), vehicle: saline.
Setting [7] is: dose: 50.0 mg/kg/injection, schedule: Q01DX001 (ip), vehicle: Klucel (hydroxypropylcellulose) (HPC).
Setting [8] is: dose: 100.0 mg/kg/injection, schedule: Q01DX001 (ip), vehicle: Klucel (hydroxypropylcellulose) (HPC).
The mark [9] stands for this setting: dose: 200.0 mg/kg/injection, schedule: Q01DX001 (ip), vehicle: Klucel (hydroxypropylcellulose) (HPC).
The mark [10] stands for this setting: dose: 60.0 mg/kg/injection, schedule: Q01DX005 (ip), vehicle: Klucel (hydroxypropylcellulose) (HPC).
Where [11] appears, read: dose: 120.0 mg/kg/injection, schedule: Q01DX005 (ip), vehicle: Klucel (hydroxypropylcellulose) (HPC).
Setting [12] is: dose: 240.0 mg/kg/injection, schedule: Q01DX005 (ip), vehicle: Klucel (hydroxypropylcellulose) (HPC).

Molecules are shown by their SMILES. Values joined by “and” are separate entries in the source; they are usually repeats but may differ in a detail not shown here. Equal values may be shown once. Inconclusive results and toxic doses are left out.

Consider `CCN(CC)CCNc1ccc(C)c2sc3ccccc3c(=O)c12`, for which the T/C is 100 % of control and 106 % of control (dose: 6.25 mg/kg/injection, schedule: Q01DX005 (ip), vehicle: distilled water + Tween-80); 100 % of control (dose: 6.25 mg/kg/injection, schedule: Q01DX009 (ip), vehicle: water); 109 % of control (dose: 7.8 mg/kg/injection, schedule: Q01DX005 (ip), vehicle: saline); 101 % of control and 104 % of control and 107 % of control (dose: 12.5 mg/kg/injection, schedule: Q01DX005 (ip), vehicle: distilled water + Tween-80); 99 % of control (dose: 12.5 mg/kg/injection, schedule: Q01DX009 (ip), vehicle: water); 120 % of control (dose: 13.0 mg/kg/injection, schedule: Q01DX005 (ip), vehicle: water). Further, the T/C is 113 % of control (dose: 15.6 mg/kg/injection, schedule: Q01DX005 (ip), vehicle: saline); 107 % of control and 108 % of control (dose: 16.2 mg/kg/injection, schedule: Q01DX005 (ip), vehicle: saline); 107 % of control (dose: 16.2 mg/kg/injection, schedule: Q01DX005 (ip), vehicle: water); 102 % of control (dose: 19.4 mg/kg/injection, schedule: Q01DX005 (ip), vehicle: saline); 109 % of control (dose: 19.4 mg/kg/injection, schedule: Q01DX005 (ip), vehicle: water); 114 % of control (dose: 19.44 mg/kg/injection, schedule: Q01DX005 (ip), vehicle: saline). Besides, the T/C runs as follows: (dose: 21.6 mg/kg/injection, schedule: Q01DX005 (ip), vehicle: water) 117 % of control; (dose: 25.0 mg/kg/injection, schedule: Q01DX005 (ip), vehicle: saline with Tween-80) 114 % of control; (dose: 25.0 mg/kg/injection, schedule: Q01DX009 (ip), vehicle: water) 100 % of control; (dose: 27.0 mg/kg/injection, schedule: Q01DX005 (ip), vehicle: saline) 114 % of control; (dose: 27.0 mg/kg/injection, schedule: Q01DX005 (ip), vehicle: water) 118 % of control; (dose: 32.4 mg/kg/injection, schedule: Q01DX005 (ip), vehicle: saline) 111 % of control. Also, the T/C was 119 % of control (dose: 32.4 mg/kg/injection, schedule: Q01DX005 (ip), vehicle: water); 119 % of control (dose: 38.9 mg/kg/injection, schedule: Q04DX003 (ip), vehicle: saline); 124 % of control (dose: 45.0 mg/kg/injection, schedule: Q01DX005 (ip), vehicle: saline); 115 % of control (dose: 50.0 mg/kg/injection, schedule: Q01DX009 (ip), vehicle: water); 152 % of control (dose: 54.0 mg/kg/injection, schedule: Q01DX005 (ip), vehicle: saline); 123 % of control (dose: 54.0 mg/kg/injection, schedule: Q01DX005 (ip), vehicle: water). Further, the T/C was 181 % of control (dose: 62.5 mg/kg/injection, schedule: Q01DX005 (ip), vehicle: saline); 156 % of control (dose: 75.0 mg/kg/injection, schedule: Q01DX005 (ip), vehicle: saline); 151 % of control (dose: 75.0 mg/kg/injection, schedule: Q01DX005 (ip), vehicle: water); 156 % of control (dose: 80.0 mg/kg/injection, schedule: Q01DX005 (ip), vehicle: water); 154 % of control (dose: 90.0 mg/kg/injection, schedule: Q01DX005 (ip), vehicle: saline); 166 % of control and 168 % of control (dose: 125.0 mg/kg/injection, schedule: Q01DX005 (ip), vehicle: saline). Moreover, under “dose: 180.0 mg/kg/injection, schedule: Q04DX003 (ip), vehicle: saline”, the T/C was 168 % of control.

As to `COC(=O)C1(C)C(=O)NC(=O)CC1C` (stereo unspecified), the T/C runs as follows: (dose: 50.0 mg/kg/injection, schedule: Q01DX005 (ip), vehicle: Klucel (hydroxypropylcellulose) (HPC)) 105 % of control; (dose: 100.0 mg/kg/injection, schedule: Q01DX005 (ip), vehicle: Klucel (hydroxypropylcellulose) (HPC)) 101 % of control; (dose: 200.0 mg/kg/injection, schedule: Q01DX005 (ip), vehicle: Klucel (hydroxypropylcellulose) (HPC)) 87 % of control.

With `Oc1ccccc1C=Nc1cccnc1`, the T/C was 96 % of control (dose: 12.5 mg/kg/injection, schedule: Q01DX009 (ip), vehicle: saline with Tween-80); 101 % of control (dose: 25.0 mg/kg/injection, schedule: Q01DX009 (ip), vehicle: saline with Tween-80); 87 % of control under setting [1].

On to `OCC(O)C(O)C1[O][Sb][O]C1CO` (stereo unspecified), for which the T/C under setting [2] was 100 % of control and 101 % of control; the T/C under setting [3] is 96 % of control and 100 % of control and 104 % of control; the T/C under setting [4] is 100 % of control and 96 % of control and 104 % of control.

In the case of `O=C1OCCN1CCCl`, the T/C (dose: 100.0 mg/kg/injection, schedule: Q01DX009 (ip), vehicle: Klucel (hydroxypropylcellulose) (HPC)) is 118 % of control; the T/C (dose: 200.0 mg/kg/injection, schedule: Q01DX009 (ip), vehicle: Klucel (hydroxypropylcellulose) (HPC)) is 121 % of control; the T/C (dose: 400.0 mg/kg/injection, schedule: Q01DX009 (ip), vehicle: Klucel (hydroxypropylcellulose) (HPC)) was 121 % of control.

In the case of `CCCCNC(=O)OCCN(C)CCOC(=O)NCCCC`, the T/C runs as follows: under setting [5], 107 % of control; under setting [6], 101 % of control.

For the compound `CC(=O)OCCS(=O)Cc1ccccc1` (stereo unspecified), the T/C was 92 % of control under setting [5]; 94 % of control under setting [6]; 100 % of control (dose: 240.0 mg/kg/injection, schedule: Q01DX005 (ip), vehicle: saline).

`O=S(=O)(O)C(O)c1ccc(Cl)cc1Cl` (stereo unspecified): the T/C by setting is: under setting [7], 100 % of control; under setting [8], 100 % of control; under setting [9], 116 % of control.

As to `CCOC(=O)C(N=Nc1ccccc1)/N=N\c1nn[nH]n1` (stereo unspecified), the T/C reads like this: under setting [7], 91 % of control; under setting [8], 91 % of control; under setting [9], 91 % of control.

With `CC(C)=CCCC1(C)C=Cc2c(ccc3c(C)coc23)O1` (stereo unspecified), the T/C is, setting by setting: under setting [2], 97 % of control; under setting [3], 100 % of control; under setting [4], 100 % of control.

Consider `Cc1cccc(Br)[n+]1[O-]`, for which the T/C was 100 % of control (dose: 12.5 mg/kg/injection, schedule: Q01DX001 (ip), vehicle: saline); 109 % of control (dose: 25.0 mg/kg/injection, schedule: Q01DX001 (ip), vehicle: saline); 100 % of control (dose: 50.0 mg/kg/injection, schedule: Q01DX001 (ip), vehicle: saline).

As to `CCCCn1cnc2c(=S)nc[nH]c21`, the T/C is, setting by setting: under setting [2], 94 % of control; under setting [3], 105 % of control; under setting [4], 102 % of control.

As for `OC1CSc2ccccc2-n2cccc21` (stereo unspecified), the T/C is 99 % of control under setting [10], 106 % of control under setting [11] and 105 % of control under setting [12].

As to `CC(=O)OCN(C)N=Nc1ccc(C#N)cc1`, the T/C is 104 % of control under setting [10] and 108 % of control under setting [11].

Regarding `Nc1nc(N)c2nc(-c3ccc([N+](=O)[O-])cc3)c(Cl)nc2n1`, the T/C (dose: 15.0 mg/kg/injection, schedule: Q01DX005 (ip), vehicle: saline with Tween-80) is 98 % of control; the T/C (dose: 30.0 mg/kg/injection, schedule: Q01DX005 (ip), vehicle: saline with Tween-80) is 98 % of control; the T/C (dose: 60.0 mg/kg/injection, schedule: Q01DX005 (ip), vehicle: saline with Tween-80) is 95 % of control and 98 % of control; the T/C (dose: 120.0 mg/kg/injection, schedule: Q01DX005 (ip), vehicle: saline with Tween-80) is 92 % of control.

Turning to `COC(=O)NN(C(=O)OC)C12CCCC1N(C(=O)OC)N(C(=O)OC)c1c2ccc2ccccc12` (stereo unspecified), the T/C by setting is: under setting [10], 103 % of control; under setting [11], 103 % of control; under setting [12], 96 % of control.

As to `O[C@@H]1CCC[C@@H]2O[C@H]12`, the T/C (dose: 100.0 mg/kg/injection, schedule: Q04DX002 (ip), vehicle: saline) was 102 % of control; the T/C (dose: 200.0 mg/kg/injection, schedule: Q04DX002 (ip), vehicle: saline) is 103 % of control; the T/C (dose: 400.0 mg/kg/injection, schedule: Q04DX002 (ip), vehicle: saline) is 109 % of control.

Take `S=C1SC2(CCCC2)NC2=C1CCC2`: the T/C by setting is: under setting [1], 90 % of control; (dose: 100.0 mg/kg/injection, schedule: Q01DX009 (ip), vehicle: saline with Tween-80) 93 % of control; (dose: 200.0 mg/kg/injection, schedule: Q01DX009 (ip), vehicle: saline with Tween-80) 99 % of control.
